Measured values: patent publication US9439875B2, “Anxiolytic effect of pterostilbene” (The United States of America, as represented by The …, priority 2011, dated 2016)
Values joined by “and” are separate entries in the source; they are usually repeats but may differ in a detail not shown here. Equal values may be shown once. “Also recorded” adds a separate entry of the source. Read-outs that look alike come from different tables or passages of the source.

Legend:
[1] = in vivo; cited from earlier work
[2] = Prefrontal cortex level of pterostilbene by GC-MS; type: in vivo, mouse; conditions: all the doses administered (1-10 mg/kg p.o.)
Description: (§1) After the EPM session, blood samples were taken from each mouse by submandibular vein puncture in heparinized blood collection vials. Mice were then sacrificed and brains quickly removed. Their prefrontal cortex (PFC) and hippocampus were dissected out on ice, and immediately frozen in liquid nitrogen and stored at −80° C. until further processing. Blood samples were centrifuged at 2000 rpm at 4° C. for 20 min to get the plasma as supernatant. The plasma samples were stored at −80° C. until used.
Hippocampus tissues were kept at −80° C. until time of extraction. Hippocampus (left and right) from 2-3 animals was combined in an Eppendorf tube, and processed as one sample. […]
The nitrogen-dried samples (plasma and brain tissue extracts) were treated with 30 μL of a 1:1 mixture of N,O-bis[trimethylsilyl]trifluoroacetamide and dimethylformamide (Pierce Biotechnology, Inc., Rockford, Ill.) and heated at 70° C. for 40 min. The derivatized samples were analyzed for levels of pterostilbene using a JEOL GCMate II Instrument (JEOL USA Inc., Peabody, Mass.) equipped with a J&W DB-5 capillary column (0.25 mm internal diameter, 0.25 μm film thickness, and 30 m length; Agilent Technologies, Foster City, Calif.). […] Quantitation of pterostilbene was done using an external standard of a synthetic sample of pterostilbene previously characterized for structure and purity.

[3] = Plasma level of pterostilbene by GC-MS; type: in vivo; conditions: mouse, after EPM session; for concentration at 65 min: Swiss Webster, plasma, oral, read-out: Pterostilbene level in the plasma (± SD)
Description: as §1
Plasma were kept at −80° C., and thawed on ice prior to extraction. Plasma were treated with β-glucuronidase, to hydrolyze any glucuronidated pterostilbene, following published procedures (Remsberg et al., supra). Briefly, 50 μL plasma (from each animal) was transferred to an Eppendorf tube, and 60 μL of β-glucuronidase solution (5000 U/mL potassium phosphate buffer, 75 mM, pH 6.8 at 37° C.) was added. The mixture was vortex-mixed then incubated at 37° C. while shaking at 750 rpm for 20 hrs. Thereafter, ice-cold HPLC grade acetonitrile was added, vortex-mixed, and centrifuged for 5 min at 5000 rpm, 4° C. The supernatant was collected, and dried under a stream of nitrogen. The dried supernatant was used for GC-MS analysis.
(§2) The nitrogen-dried samples (plasma and brain tissue extracts) were treated with 30 μL of a 1:1 mixture of N,O-bis[trimethylsilyl]trifluoroacetamide and dimethylformamide (Pierce Biotechnology, Inc., Rockford, Ill.) and heated at 70° C. for 40 min. The derivatized samples were analyzed for levels of pterostilbene using a JEOL GCMate II Instrument (JEOL USA Inc., Peabody, Mass.) equipped with a J&W DB-5 capillary column (0.25 mm internal diameter, 0.25 μm film thickness, and 30 m length; Agilent Technologies, Foster City, Calif.). […] The carrier gas was ultrahigh purity helium, at 1 mL/min flow rate. The injection port, GC-MS interface, and ionization chamber were kept at 250, 230, and 230° C., respectively. The volume of injection was 2 μL (splitless injection). The mass spectrum was acquired in the positive, selected ion-monitoring mode (m/z 328, 313, and 297); electron impact 70 eV. GC-MS analyses were in duplicates. The retention time of pterostilbene was 10.2 min. Quantitation of pterostilbene was done using an external standard of a synthetic sample of pterostilbene previously characterized for structure and purity.

[4] = Hippocampus level of pterostilbene by GC-MS; type: in vivo, mouse; conditions: for Pterostilbene level in the hippocampus (± SD): mouse
Description: as §1
Hippocampus tissues were kept at −80° C. until time of extraction. Hippocampus (left and right) from 2-3 animals was combined in an Eppendorf tube, and processed as one sample. To the tube was added 200 μL phosphate buffer (0.2M NaH2PO4:0.2M Na2HPO4, and the tissues were homogenized manually for 2 minutes. To 100 μl aliquot, 50 μL β-glucuronidase (5000 U/mL potassium phosphate buffer) was added. The mixture was vortex-mixed, and incubated (37° C., 20 hours) while shaking (750 rpm). The samples were then centrifuged (15 min, 7000 g, 4° C.). The supernatant was collected and partitioned with ethyl acetate (200 μL, twice). The ethyl acetate layers were combined, dried under a stream of nitrogen, and used for GC-MS analysis. Extraction of the prefrontal cortex (PFC) was performed in the same manner as the hippocampus; PFC tissues from three animals were combined and treated as one sample.
as §2

[5] = test system: Swiss Webster mice; test: Spontaneous motor (locomotor) activity; type: in vivo, mouse
Description: To measure spontaneous motor activity, adult Swiss Webster mice (n=8-10/group) were administered with pterostilbene by oral gavage. Each mouse was then placed in the locomotor chamber and acclimated in the Plexiglas enclosure for 30 min. After the 30 min acclimation period, locomotor activity was measured for 30 min using an automated activity monitoring system (San Diego Instruments, CA, USA). Total activity was expressed as the total number of interruptions of 16 cell photobeams per chamber.

Pterostilbene level in the pre-frontal cortex tissues [2]: trace levels | Pterostilbene level in the plasma (± SD) ([3]; 1 mg/kg BW p.o.): 10.0887 ± 6.6699 ng/mL | Pterostilbene level in the plasma (± SD) ([3]; 10 mg/kg BW p.o.): 130.2651 ± 40.2558 ng/mL | concentration at 65 min ([3]; 1 mg/kg BW, 1 mg/kg BW p.o.): 10.1 ± 6.67 ng/mL | concentration at 65 min ([3]; 2 mg/kg BW, 2 mg/kg BW p.o.): 27 ± 7.27 ng/mL | concentration at 65 min ([3]; 5 mg/kg BW, 5 mg/kg BW p.o.): 72 ± 19 ng/mL | concentration at 65 min ([3]; 10 mg/kg BW, 10 mg/kg BW p.o.): 130 ± 40.2 ng/mL | Pterostilbene level in the hippocampus (± SD) ([4]; 2 mg/kg BW p.o.): 0.2627 ± 0.0230 ng/hippocampus | Pterostilbene level in the hippocampus (± SD) ([4]; 5 mg/kg BW p.o.): 0.5314 ± 0.1830 ng/hippocampus | Pterostilbene level in the hippocampus ([4]; range over 2, 5 and 10 mg/kg doses): 0.2627-1.1217 ng/hippocampus | locomotor activity ([5]; highest dose (10 mg/kg)): didn't have any effect | spontaneous motor activity ([5]; maximal anxiolytic dose (2 mg/kg), post hoc comparison): not affected
SMILES: COc1cc(/C=C/c2ccc(O)cc2)cc(OC)c1 [pterostilbene]
half-life [1]: approximately 2 hr | Pterostilbene level in the hippocampus (± SD) ([4]; 10 mg/kg BW p.o.): 1.1217 ng/hippocampus and 1.1217 ± 0.1322 ng/hippocampus | locomotor activity (total number of photobeam interruptions per chamber) ([5]; 1-10 mg/kg by oral gavage, one-way ANOVA): no stimulant or depressive actions; also recorded: no significant effect | sedating tendency in EPM and locomotor activity monitoring chambers ([5]; higher doses): did not show any sedating tendency
